This passage reports A2 native and A2 peptide results from patent publication US20040037843A1, “Inducing cellular immune responses to prostate cancer antigens using peptide and nucleic acid compositions” (priority 2003, published 2004).

For the test, the system named is .221A2.1 peptide-loaded target cells and cells expressing endogenous antigen. Description: Primary in vitro CTL induction with peptide-pulsed DC, CTL lytic activity by 51Cr release. The following applies: immunogenicity, positive/tested; for A2 native: CTL recognition of native (wild-type) target; for A2 peptide: CTL recognition of the peptide. The test is classed as cell-based, human. Here is the method: Testing was performed using the following methodology:
Cells that express an antigen of interest, or transfectants comprising the gene encoding the antigen of interest, can be used as target cells to test the ability of peptide-specific CTLs to recognize endogenous antigen.
The monocytes are purified by plating 10×10^6 PBMC/well in a 6-well plate. After 2 hours at 37° C., the non-adherent cells are removed by gently shaking the plates and aspirating the supernatants. The wells are washed a total of three times with 3 ml RPMI to remove most of the non-adherent and loosely adherent cells. Three ml of complete medium containing 50 ng/ml of GM-CSF and 1,000 U/ml of IL-4 are then added to each well. TNFα is added to the DCs on day 6 at 75 ng/ml and the cells are used for CTL induction cultures on day 7.
Induction of CTL with DC and Peptide: CD8+ T-cells are isolated by positive selection with Dynal imnmunomagnetic beads (Dynabeads® M-450) and the detacha-bead® reagent. Typically about 200-250×10^6 PBMC are processed to obtain 24×10^6 CD8^+T-cells (enough for a 48-well plate culture). Briefly, the PBMCs are thawed in RPMI with 30 μg/ml DNAse, washed once with PBS containing 1% human AB serum and resuspended in PBS/1% AB serum at a concentration of 20×10^6 cells/ml. The magnetic beads are washed 3 times with PBS/AB serum, added to the cells (140 μl beads/20×10^6 cells) and incubated for 1 hour at 4° C. with continuous mixing. The beads and cells are washed 4× with PBS/AB serum to remove the nonadherent cells and resuspended at 100×10^6 cells/ml (based on the original cell number) in PBS/AB serum containing 100 μl/ml detacha-bead® reagent and 30 μg/ml DNAse. The mixture is incubated for 1 hour at room temperature with continuous mixing. The beads are washed again with PBS/AB/DNAse to collect the CD8+ T-cells. The DC are collected and centrifuged at 1300 rpm for 5-7 minutes, washed once with PBS with 1% BSA, counted and pulsed with 40 μg/ml of peptide at a cell concentration of 1-2×10^6/ml in the presence of 3 μg/ml β2-microglobulin for 4 hours at 20° C. The DC are then irradiated (4,200 rads), washed 1 time with medium and counted again.
Setting up induction cultures: 0.25 ml cytokine-generated DC (@1×10^5 cells/ml) are co-cultured with 0.25 ml of CD8+ T-cells (@2×10^6 cell/ml) in each well of a 48-well plate in the presence of 10 ng/ml of IL-7. Recombinant human IL10 is added the next day at a final concentration of 10 ng/ml and rhuman IL2 is added 48 hours later at 10 IU/mL.
Restimulation of the induction cultures with peptide-pulsed adherent cells: Seven and fourteen days after the primary induction the cells are restimulated with peptide-pulsed adherent cells. The PBMCS are thawed and washed twice with RPMI and DNAse. The cells are resuspended at 5×10^6 cells/ml and irradiated at ˜4200 rads. The PBMCs are plated at 2×10^6 in 0.5 ml complete medium per well and incubated for 2 hours at 37° C. The plates are washed twice with RPMI by tapping the plate gently to remove the nonadherent cells and the adherent cells pulsed with 10 μg/ml of peptide in the presence of 3 μg/ml β2 microglobulin in 0.25 ml RPMI/5% AB per well for 2 hours at 37° C. Peptide solution from each well is aspirated and the wells are washed once with RPMI. Most of the media is aspirated from the induction cultures (CD8+ cells) and brought to 0.5 ml with fresh media. The cells are then transferred to the wells containing the peptide-pulsed adherent cells. Twenty four hours later rhuman IL10 is added at a final concentration of 10 ng/ml and rhuman IL2 is added the next day and again 2-3 days later at 50 IU/ml (Tsai et al., Critical Reviews in Immunology 18(1-2):65-75, 1998). Seven days later the cultures are assayed for CTL activity in a ^51Cr release assay. In some experiments the cultures are assayed for peptide-specific recognition in the in situ IFNγ ELISA at the time of the second restimulation followed by assay of endogenous recognition 7 days later. […]

Consider `CC[C@H](C)[C@H](NC(=O)[C@H](Cc1c[nH]c2ccccc12)NC(=O)[C@@H](NC(=O)[C@@H](NC(=O)[C@H](CO)NC(=O)[C@H](CC(C)C)NC(=O)[C@@H](NC(=O)[C@H](CC(C)C)NC(=O)[C@@H](N)Cc1ccccc1)[C@@H](C)O)C(C)C)[C@@H](C)O)C(=O)NCC(=O)N[C@H](C(=O)O)C(C)C` [Peptide 1419.27], for which the A2 native is reported as 3/3 and the A2 peptide was 3/3. For the compound `CC(C)C[C@H](NC(=O)[C@H](CCCCN)NC(=O)[C@H](CCCCN)NC(=O)[C@@H]1CCCN1C(=O)[C@@H](NC(=O)[C@H](CC(C)C)NC(=O)[C@@H](N)Cc1ccccc1)[C@@H](C)O)C(=O)N[C@@H](CCC(N)=O)C(=O)N[C@@H](CS)C(=O)N[C@H](C(=O)O)C(C)C` [Peptide 1098.02], the A2 peptide is 3/4. Still for that read-out and setting: to `CSCC[C@H](NC(=O)[C@@H](N)CC(C)C)C(=O)N[C@@H](Cc1ccc(O)cc1)C(=O)N[C@@H](CO)C(=O)N[C@@H](CC(C)C)C(=O)N[C@H](C(=O)N[C@@H](Cc1c[nH]cn1)C(=O)N[C@@H](CC(N)=O)C(=O)N[C@@H](CC(C)C)C(=O)O)C(C)C` [Peptide 1126.14] belongs 3/3. For the compound `CC(C)C[C@H](NC(=O)[C@H](Cc1ccccc1)NC(=O)[C@H](Cc1ccccc1)NC(=O)CNC(=O)CNC(=O)[C@H](C)NC(=O)[C@H](CC(C)C)NC(=O)[C@@H](N)C(C)C)C(=O)N[C@H](C(=O)O)C(C)C` [Peptide 1389.20], the A2 native is given as 1/2 and the A2 peptide is recorded as 1/2. On to `CSCC[C@H](NC(=O)[C@H](CC(C)C)NC(=O)[C@H](CCC(N)=O)NC(=O)[C@H](CC(=O)O)NC(=O)[C@H](CC(N)=O)NC(=O)[C@H](CCSC)NC(=O)[C@@H](N)CCSC)C(=O)N[C@@H](Cc1ccccc1)C(=O)N[C@@H](CC(C)C)C(=O)O` [Peptide 1126.01], for which the A2 peptide was 2/2. Still for that read-out and setting: to `CC[C@H](C)[C@H](NC(=O)[C@@H]1CCCN1C(=O)[C@H](Cc1c[nH]cn1)NC(=O)[C@@H](NC(=O)[C@@H]1CCCN1C(=O)[C@@H](NC(=O)[C@H](CO)NC(=O)[C@@H]1CCCN1C(=O)[C@H](CC(C)C)NC(=O)CN)[C@@H](C)CC)C(C)C)C(=O)O` [Peptide 1129.10] belongs 2/4. As for `CC[C@H](C)[C@H](N)C(=O)N[C@H](C(=O)N[C@@H](CC(C)C)C(=O)N[C@@H](Cc1c[nH]c2ccccc12)C(=O)N[C@@H](CCC(N)=O)C(=O)N1CCC[C@H]1C(=O)N[C@H](C(=O)N1CCC[C@H]1C(=O)N[C@H](C(=O)O)C(C)C)[C@@H](C)CC)[C@@H](C)O` [Peptide 1418.25], the A2 native was 2/3 and the A2 peptide is 3/3. With `CC(C)C[C@H](NC(=O)[C@H](CC(C)C)NC(=O)[C@H](Cc1ccccc1)NC(=O)[C@H](Cc1ccccc1)NC(=O)CNC(=O)CNC(=O)[C@H](C)NC(=O)[C@H](CC(C)C)NC(=O)[C@@H](N)C(C)C)C(=O)O` [Peptide 1126.10], the A2 peptide is given as 1/2.

Regarding `CSCC[C@H](NC(=O)[C@H](CC(C)C)NC(=O)[C@@H](N)CC(=O)O)C(=O)N[C@@H](CC(C)C)C(=O)N[C@@H](CC(C)C)C(=O)N[C@@H](CCCNC(=N)N)C(=O)N[C@@H](CC(C)C)C(=O)N[C@@H](CO)C(=O)N[C@@H](CCC(=O)O)C(=O)N1CCC[C@H]1C(=O)N[C@H](C(=O)O)C(C)C` [Peptide 1419.13], the A2 native was 2/2 and the A2 peptide is on record as 2/2. As to `CSCC[C@H](NC(=O)[C@H](CC(=O)O)NC(=O)[C@H](CC(N)=O)NC(=O)[C@H](CO)NC(=O)[C@H](CC(C)C)NC(=O)[C@H](CC(C)C)NC(=O)[C@H](Cc1c[nH]cn1)NC(=O)[C@H](CC(C)C)NC(=O)[C@@H](N)CO)C(=O)N[C@@H](CS)C(=O)N[C@@H](C)C(=O)O` [Peptide 1419.14], the A2 peptide is 1/3.

Take `CC(C)C[C@H](NC(=O)[C@H](Cc1c[nH]c2ccccc12)NC(=O)[C@H](Cc1ccccc1)NC(=O)[C@H](Cc1ccccc1)NC(=O)[C@@H](NC(=O)[C@@H](N)CC(C)C)[C@@H](C)O)C(=O)N[C@@H](CC(=O)O)C(=O)N[C@@H](CCCNC(=N)N)C(=O)N[C@@H](CO)C(=O)N[C@H](C(=O)O)C(C)C` [Peptide 1418.23]: the A2 native is reported as 2/3 and the A2 peptide is recorded as 3/3. `CSCC[C@H](NC(=O)[C@H](CC(C)C)NC(=O)[C@H](CCC(N)=O)NC(=O)[C@H](CC(=O)O)NC(=O)[C@H](CC(N)=O)NC(=O)[C@H](CCSC)NC(=O)[C@H](CCSC)NC(=O)[C@@H](N)CCCNC(=N)N)C(=O)N[C@@H](Cc1ccccc1)C(=O)N[C@@H](CC(C)C)C(=O)O` [Peptide 1126.06]: the A2 peptide was 1/1.

As for `CC[C@H](C)[C@H](N)C(=O)N[C@@H](CCSC)C(=O)N[C@@H](Cc1ccc(O)cc1)C(=O)N[C@@H](CO)C(=O)N[C@@H](C)C(=O)N[C@@H](Cc1c[nH]cn1)C(=O)N[C@@H](CC(=O)O)C(=O)N[C@H](C(=O)N[C@H](C(=O)N[C@H](C(=O)O)C(C)C)[C@@H](C)O)[C@@H](C)O` [Peptide 1097.05], the A2 peptide was 3/3. For the compound `CC[C@H](C)[C@H](NC(=O)[C@H](CO)NC(=O)[C@H](CC(C)C)NC(=O)[C@H](CC(C)C)NC(=O)[C@@H](N)CC(C)C)C(=O)N[C@@H](C)C(=O)N[C@@H](CC(C)C)C(=O)N[C@@H](CO)C(=O)N[C@H](C(=O)O)C(C)C` [Peptide 1418.13], the A2 native was 2/2 and the A2 peptide was 2/2. For the compound `CC(C)C[C@H](NC(=O)[C@H](C)N)C(=O)NCC(=O)N[C@H](C(=O)N[C@H](C(=O)N[C@@H](CS)C(=O)N[C@@H](Cc1ccc(O)cc1)C(=O)N[C@@H](C)C(=O)O)[C@@H](C)O)[C@@H](C)O` [Peptide 1419.01], the A2 peptide is 1/2.

Turning to `CC[C@H](C)[C@H](NC(=O)[C@H](CO)NC(=O)[C@@H]1CCCN1C(=O)[C@H](CC(C)C)NC(=O)CN)C(=O)N1CCC[C@H]1C(=O)N[C@H](C(=O)N[C@@H](Cc1c[nH]cn1)C(=O)N1CCC[C@H]1C(=O)N[C@H](C(=O)O)C(C)C)C(C)C` [Peptide 1389.24], the A2 native is given as 3/4 and the A2 peptide is on record as 4/4. Taken in the same sequence, the figures for `CC(C)C[C@H](NC(=O)[C@@H]1CCCN1)C(=O)N[C@H](C(=O)N[C@@H](CS)C(=O)N[C@@H](CC(N)=O)C(=O)NCC(=O)N[C@H](C(=O)N[C@@H](CC(C)C)C(=O)N[C@@H](CCC(N)=O)C(=O)NCC(=O)N[C@H](C(=O)O)C(C)C)C(C)C)C(C)C` [Peptide 1419.17] were 2/2 and 2/2. The matching figures for `CC(C)C[C@H](NC(=O)[C@H](C)N)C(=O)N[C@@H](Cc1ccccc1)C(=O)N1CCC[C@H]1C(=O)N1CCC[C@H]1C(=O)N[C@@H](CCC(=O)O)C(=O)NCC(=O)N[C@H](C(=O)N[C@@H](CO)C(=O)N[C@H](C(=O)O)C(C)C)C(C)C` [Peptide 1419.61]: 1/3 and 1/3. Regarding `CC(C)C[C@H](NC(=O)[C@H](CC(=O)O)NC(=O)[C@@H](NC(=O)[C@H](CS)NC(=O)[C@H](CCC(N)=O)NC(=O)[C@H](CC(C)C)NC(=O)[C@@H](N)CCCCN)C(C)C)C(=O)N[C@@H](Cc1c[nH]cn1)C(=O)N[C@H](C(=O)O)C(C)C` [Peptide 990.01], the A2 peptide is listed as 1/2.

Consider `CC[C@H](C)[C@H](N)C(=O)N[C@@H](CC(C)C)C(=O)N[C@@H](CC(C)C)C(=O)N[C@@H](Cc1c[nH]c2ccccc12)C(=O)N[C@@H](CCC(N)=O)C(=O)N1CCC[C@H]1C(=O)N[C@H](C(=O)N1CCC[C@H]1C(=O)N[C@H](C(=O)O)C(C)C)[C@@H](C)CC` [Peptide 1044.04], for which the A2 peptide is 5/5.
